How the values were obtained:
B16F10 cancer cells = experiment: B16F10 tumor model, ripasudil, PDT and anti-PD-L1 antibodies; design: species or system C57BL/6 wild-type mice; conditions: mouse, in vivo
[1] = tested on: bone marrow-derived dendritic cells (BMDCs); experiment: Phagocytosis of cancer cells by bone marrow-derived dendritic cells in vitro; format: cell-based, mice; conditions: 30 μM, 1 hour; B16F10; co-cultivated 30 min
[2] = tested on: bone marrow-derived macrophages (BMDMs); experiment: Phagocytosis of cancer cells by bone marrow-derived macrophages in vitro; format: cell-based, mice; conditions: 30 μM, 1 hour; B16F10; co-cultivated 30 min
Method: Specifically, the present inventors prepared bone marrow-derived macrophages (BMDMs) differentiated from excised bone marrow of mice using M-CSF and bone marrow-derived dendritic cells (BMDCs) differentiated from excised bone marrow using Flt3L. The degree of differentiation was confirmed by flow cytometry analysis using antibodies specifically binding to F4/80 (BMDM marker) and CD11c (BMDC marker), respectively (FIGS. 2A and 2B).
The prepared BMDMs and BMDCs were stained with 1 μM CellTracker Deep Red (Thermo Fisher Scientific, USA). 30 μM of Y27632 (Abcam, USA) or 30 μM of fasudil (Selleck Chemicals, USA) was added to each of 15×10^4 cells/ml of the stained macrophages and dendritic cells and incubated at 37° C. for 1 hour. As a negative control, macrophages or dendritic cells that were not incubated with Y27632 and fasudil were used.
Bone marrow-derived macrophages or dendritic cells prepared in RPMI medium and cancer cell lines stained with 1 μM CellTracker CMFDA (Thermo Fisher Scientific, USA) were co-cultured at about 37° C. for about 2 hours. CT26.CL25, a colon cancer cell line, and B16F10-OVA, a melanoma cell line, were used as the cancer cells.
Thereafter, the percentage of cancer cells was measured by flow cytometry, and the phagocytosis ratio of macrophages and dendritic cells against cancer cells was calculated. The results are shown in FIGS. 2C to 2F (left: cancer cell line CT26.CL25, right: cancer cell line B16F10-OVA).
In order to more accurately analyze the phagocytosis of macrophages and dendritic cells against cancer cells according to the treatment of the ROCK inhibitor, the present inventors analyzed phagocytosis of the BMDMs and BMDCs against CT26.CL25 colon cancer cells using the pHrodo-SE dye, which changes in fluorescence depending on pH. When […], the pH of the cancer cells decreased and became red. When treated with Y27632 as described above for the above-mentioned phagocytosis response, the phagocytic activities of both the BMDMs and BMDCs against cancer cells were improved.
The present inventors performed an experiment to confirm how long the phagocytosis of BMDMs and BMDCs against cancer cells due to the ROCK inhibitor is maintained. Specifically, BMDMs and BMDCs were pretreated with Y27632 for 1 hour, then Y27632 was removed, and immediately after 30 minutes, 1 hour, 2 hours, or 4 hours, the phagocytosis against CT26.CL25 and B16F10-Ova was measured using a flow cytometer. The other experimental conditions were the same as in Example 1-1.
In order to confirm whether the ROCK inhibitor increases phagocytosis against cancer cells by acting on phagocytic cells (BMDMs or BMDCs) themselves, Y27632 was used to pretreat the phagocytic cells or cancer cells for 1 hour, and the phagocytic activity was analyzed using the same procedure described in Example 1-1.
The present inventors identified through the above-mentioned results that Y27632 promotes phagocytic cells against cancer cells by inhibiting ROCK in the phagocytic cells. In order to elucidate a more detailed mechanism related to the increase of phagocytic activity by ROCK inhibitors, the present inventors analyzed phagocytosis of the phagocytic cells against cancer cells using blebbistatin (Sigma-Aldrich, USA), which can inhibit the movement of myosin light chain, which exist downstream of ROCK signaling pathway, according to the method described in Example 1-1.
Bone marrow-derived macrophages (BMDMs) treated with 30 μM of fasudil were co-cultured with B16F10-Ova malignant melanoma cells for 1 hour and the phagocytic activity of the BMDMs against apoptotic cancer cells was analyzed by flow cytometry analysis. In order to induce immunogenic apoptosis, 2.5 μM mitoxantrone (Sigma-Aldrich, USA) was administered with B16F10-Ova cells stained with CellTracker Deep Red (Thermo Fisher Scientific, USA) for 4 hours. […]

## C[C@H]1CNCCCN1S(=O)(=O)c1cccc2cncc(F)c12 [ripasudil]
B16F10 cancer cells
  CD40 and CD86 on dendritic cells of tumor draining lymph nodes: No increased expression
[1]
  phagocytic activity of BMDCs against PDT-treated cancer cells: significantly increased
[2]
  phagocytic activity of BMDMs against PDT-treated cancer cells: significantly increased

Source: patent US20190328721A1, “METHOD OF ACTIVATING DENDRITIC CELLS” (KOREA INSTITUTE OF SCIENCE AND TECHNOLOGY, priority 2018, published 2019)
